These are literature values, as cited in patent US20100119604A1, “Solid drug formulation and device for storage and controlled delivery thereof” (BOSTON SCIENTIFIC SCIMED, INC., priority 2003, published 2010).

For the data set the following is noted: daily exposure limit of excipient / residual solvent per ICH Guideline Q3C.

Structures can show the parent of a compound that is named as a salt.

With `C1CCCCC1` [Cyclohexane], the “Daily limit” value is reported as 38.8 mg.

For `CC(Cl)(Cl)Cl` [1,1,1-Trichloroethane], the “Daily limit” value is listed as 15 mg.

Take `C=C(Cl)Cl` [1,1-Dichloroethene]: the “Daily limit” value was 0.08 mg.

Take `c1ccncc1` [Pyridine]: the “Daily limit” value was 2.0 mg.

Consider `C[S+](C)[O-]` [Dimethyl sulfoxide], for which the “Daily limit” value is 50 mg.

Turning to `c1ccc2c(c1)CCCC2` [Tetralin], the “Daily limit” value was 1.0 mg.

Regarding `CCCCC(C)=O` [Methylbutyl ketone], the “Daily limit” value was 0.5 mg.

Take Xylene: the “Daily limit” value was 21.7 mg.

In the case of `CCOCCO` [2-Ethoxyethanol], the “Daily limit” value is recorded as 1.6 mg.

Regarding `ClCCCl` [1,2-Dichloroethane], the “Daily limit” value is 0.05 mg.

On to `COC(C)=O` [Methyl acetate], for which the “Daily limit” value is given as 50 mg.

As to `NC=O` [Formamide], the “Daily limit” value is 2.2 mg.

As for `COC(C)(C)C` [tert-Butylmethyl ether], the “Daily limit” value is 50 mg.

As to `C[N+](=O)[O-]` [Nitromethane], the “Daily limit” value is 0.5 mg.

As to `COc1ccccc1` [Anisole], the “Daily limit” value is 50 mg.

As to `ClC(Cl)(Cl)Cl` [Carbon tetrachloride], the “Daily limit” value is recorded as 0.04 mg.

Take `CCCO` [Formulation 1-Propanol, 1-Propanol]: the “Daily limit” value is 50 mg.

Regarding `COCCO` [2-Methoxyethanol], the “Daily limit” value is given as 0.5 mg.

Take `CCOCC` [Ethyl ether]: the “Daily limit” value is recorded as 50 mg.

On to `O=CO` [Formic acid], for which the “Daily limit” value is 50 mg.

As to `ClCCl` [Dichloromethane], the “Daily limit” value was 6.0 mg.

For the compound `CCCCCC` [Hexane], the “Daily limit” value is 2.9 mg.

As to `CN(C)C=O` [N,N-Dimethylformamide], the “Daily limit” value is 8.8 mg.

Turning to `CC1CCCCC1` [Methylcyclohexane], the “Daily limit” value was 11.8 mg.

For the compound `CCCCOC(C)=O` [Butyl acetate], the “Daily limit” value is given as 50 mg.

With `C1CCOC1` [Tetrahydrofuran], the “Daily limit” value is given as 7.2 mg.

In the case of `Clc1ccccc1` [Chlorobenzene], the “Daily limit” value was 3.6 mg.

Regarding `CCCCCO` [Formulation 1-Pentanol, 1-Pentanol], the “Daily limit” value was 50 mg.

For `CC(C)c1ccccc1` [Cumene], the “Daily limit” value is reported as 50 mg.

Turning to `CCO` [Ethanol], the “Daily limit” value is on record as 50 mg.

Take `ClC=C(Cl)Cl` [1,1,2-Trichloroethene]: the “Daily limit” value is listed as 0.8 mg.

Take `c1ccccc1` [Benzene]: the “Daily limit” value was 0.02 mg.

For `CC(C)=O` [Acetone], the “Daily limit” value is recorded as 50 mg.

Take `CCCOC(C)=O` [Propyl acetate]: the “Daily limit” value was 50 mg.

Consider `CCCCCCC` [Heptane], for which the “Daily limit” value is 50 mg.

On to `CC#N` [Acetonitrile], for which the “Daily limit” value is recorded as 4.1 mg.

Regarding `CC(=O)CC(C)C` [Methylisobutyl ketone], the “Daily limit” value is 50 mg.

As to `CCOC=O` [Ethyl formate], the “Daily limit” value is 50 mg.

In the case of `COCCOC` [1,2-Dimethoxyethane], the “Daily limit” value is given as 1.0 mg.

On to `CC(=O)O` [Acetic acid], for which the “Daily limit” value is reported as 50 mg.

On to `CCC(C)O` (stereo not shown) [Formulation 2-Butanol, 2-Butanol], for which the “Daily limit” value is reported as 50 mg.

With `OCCO` [Ethyleneglycol], the “Daily limit” value was 6.2 mg.

`CN1CCCC1=O` [N-Methylpyrrolidone]: the “Daily limit” value was 5.3 mg.
